Measured values: patent US20230226049A1, “ACALABRUTINIB MALEATE DOSAGE FORMS” (Acerta Pharma B.V., priority 2020, published 2023)
Converted amounts (≈) assume the structure as drawn.

Columns and labels:
[1] = Two-stage pH shift dissolution of acalabrutinib salts; assay type: physicochemical; details: pH shift method, both starting media; FIGS. 11 and 12
Experimental: Phosphate, oxalate, and maleate salts of acalabrutinib were evaluated using a two-stage in vitro dissolution method known as a pH shift method. The initial medium was either deionized water or a simulated gastric fluid containing hydrochloric acid and sodium chloride and pH adjusted to 1.8. After the salts were in the initial medium for 30 minutes, the medium was then changed to a FaSSIF-V2 medium by addition of a double strength concentrate to give a final pH of 6.5. The FaSSIF-V2 medium contained a sodium phosphate buffer with sodium chloride, sodium taurocholate, and lecithin. The dissolution testing was conducted using USP dissolution apparatus 2 (paddle) operating at 50 RPM at 37 ± 0.5° C. in 250 mL of medium for first 30 minutes and then in 500 mL of medium post-shift. Samples from the dissolution medium were pulled from the aqueous phase at predetermined time points and assayed by HPLC. FIGS. 2 and 3 show the dissolution profiles of the three salts in the simulated gastric fluid/FaSSIF-V2 media and the deionized water/FaSSIF-V2 media, respectively.
In view of the formulation challenges associated with the physical properties of the phosphate and oxalate salts, the maleate salt was re-tested in the previously described pH shift dissolution method after undergoing particle size reduction. […]

[2] = Physicochemical properties of acalabrutinib maleate monohydrate (Table 2)
physchem = details: pH 6, water
Experimental: In addition, the solubility of acalabrutinib maleate was measured in buffered solutions representative of the media used for dissolution of acalabrutinib maleate tablets.

| Dissolution profile relative to unmilled maleate salt [1] | pKa ([2]; acidic) | solubility ([2]; aqueous buffer, @ pH 8 Free Base, read-out: Intrinsic solubility) [µg/mL] | solubility (physchem) [µg/mL] | Structure (SMILES) |
| --- | --- | --- | --- | --- |
| significantly improved |  |  |  | CC#CC(=O)N1CCC[C@H]1c1nc(-c2ccc(C(=O)Nc3ccccn3)cc2)c2c(N)nccn12.O=C(O)/C=C\C(=O)O [micronized maleate salt] |
|  | 12.1 | 48 (≈ 103 µM) | < 100 | CC#CC(=O)N1CCC[C@H]1c1nc(-c2ccc(C(=O)Nc3ccccn3)cc2)c2c(N)nccn12 [acalabrutinib free base, 4-{8-amino-3-[(2S)-1-(but-2-ynoyl)pyrrolidin-2-yl]imidazo[1,5-a]pyrazin-1-yl}-N-(pyridin-2-yl)benzamide] |
